Measured values: patent US10849982B2, “C3-carbon linked glutarimide degronimers for target protein degradation” (C4 Therapeutics, Inc., priority 2016, dated 2020)
Counter-ions that a name gives are not always drawn.

Biological target: CRBN-DDB1 (Homo sapiens (Human), UniProt Q96SW2)
Test: CRBN-DDB1 fluorescence polarization (FP) binding assay
Conditions: displacement of Thalidomide-Alexa Fluor or Pomalidomide-fluorescein probe
Description: Measuring compound ligand binding to CRBN-DDB1 was carried out using an established sensitive and quantitative in vitro fluorescence polarization (FP) based binding assay. […] Compounds were dispensed from serially diluted DMSO stock into black 384-well compatible fluorescence polarization plates using an Echo acoustic dispenser. Compound binding to CRBN-DDB1 was measured by displacement of either a (−)-Thalidomide-Alexa Fluor® or Pomalidomide-fluorescein conjugated probe dye. […] Matching control wells excluding CRBN-DDB1 were used to correct for background fluorescence. Plates were read on an Envision plate reader with appropriate FP filter sets. The corrected S (perpendicular) and P (parallel) values were used to calculate fluorescence polarization (FP) with the following equation: FP=1000*(S−G*P)/(S+G*P).

Chain of CRBN-DDB1 (Q96SW2 whole entry): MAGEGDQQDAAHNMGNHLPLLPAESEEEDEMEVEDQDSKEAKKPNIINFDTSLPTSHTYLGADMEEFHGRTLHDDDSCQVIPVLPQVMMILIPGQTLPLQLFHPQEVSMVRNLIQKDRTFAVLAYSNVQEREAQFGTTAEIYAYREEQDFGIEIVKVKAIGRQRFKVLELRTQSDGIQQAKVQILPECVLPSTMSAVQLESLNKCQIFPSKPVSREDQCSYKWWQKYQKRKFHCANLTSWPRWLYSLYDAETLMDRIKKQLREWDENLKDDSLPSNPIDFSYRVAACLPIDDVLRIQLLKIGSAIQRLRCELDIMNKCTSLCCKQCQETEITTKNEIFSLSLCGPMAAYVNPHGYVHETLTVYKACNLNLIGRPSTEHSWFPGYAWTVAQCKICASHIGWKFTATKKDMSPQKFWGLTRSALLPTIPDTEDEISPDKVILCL
Chain of CRBN-DDB1 (Q16531 whole entry partner): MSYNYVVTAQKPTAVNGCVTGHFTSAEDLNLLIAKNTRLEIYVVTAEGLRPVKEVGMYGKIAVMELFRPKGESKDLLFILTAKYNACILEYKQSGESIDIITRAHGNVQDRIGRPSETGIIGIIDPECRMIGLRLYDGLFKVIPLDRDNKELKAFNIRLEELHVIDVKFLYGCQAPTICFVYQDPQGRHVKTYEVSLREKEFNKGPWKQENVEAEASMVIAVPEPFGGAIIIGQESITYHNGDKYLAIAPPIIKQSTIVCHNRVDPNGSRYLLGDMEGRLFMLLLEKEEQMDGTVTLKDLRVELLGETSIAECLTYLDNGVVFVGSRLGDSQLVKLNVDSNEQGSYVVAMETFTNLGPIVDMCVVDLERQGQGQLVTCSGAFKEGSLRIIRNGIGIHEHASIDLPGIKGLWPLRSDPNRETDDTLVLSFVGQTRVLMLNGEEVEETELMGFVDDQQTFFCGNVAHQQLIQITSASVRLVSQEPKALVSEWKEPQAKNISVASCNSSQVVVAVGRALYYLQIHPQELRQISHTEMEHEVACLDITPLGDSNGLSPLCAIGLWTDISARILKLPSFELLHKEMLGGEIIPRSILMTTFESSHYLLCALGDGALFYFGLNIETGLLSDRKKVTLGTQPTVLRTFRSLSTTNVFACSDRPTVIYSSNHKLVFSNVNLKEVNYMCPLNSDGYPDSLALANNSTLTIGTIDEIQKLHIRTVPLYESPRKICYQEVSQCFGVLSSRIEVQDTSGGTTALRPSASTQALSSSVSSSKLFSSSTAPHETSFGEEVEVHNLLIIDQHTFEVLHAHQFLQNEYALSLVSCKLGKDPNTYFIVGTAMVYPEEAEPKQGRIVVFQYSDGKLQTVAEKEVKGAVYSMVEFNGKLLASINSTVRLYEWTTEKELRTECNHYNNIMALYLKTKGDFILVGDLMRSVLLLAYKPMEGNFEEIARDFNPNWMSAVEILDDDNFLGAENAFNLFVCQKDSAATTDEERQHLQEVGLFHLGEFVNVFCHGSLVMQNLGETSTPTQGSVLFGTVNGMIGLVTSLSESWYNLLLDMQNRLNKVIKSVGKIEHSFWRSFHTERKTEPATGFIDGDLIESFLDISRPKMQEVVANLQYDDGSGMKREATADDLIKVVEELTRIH

Compound | Kd [µM]
O=C1NC(=O)C2(c3ccccc3)CC12 (centres unmarked) [Compound 1, 1-phenyl-3-azabicyclo[3.1.0]hexane-2,4-dione] | > 100
O=C1NC(=O)C2(c3ccccc3)CC1C2 [Compound 2, 1-Phenyl-3-azabicyclo[3.1.1]heptane-2,4-dione] | > 30
O=C1NC(=O)C2(c3ccc([N+](=O)[O-])cc3)CC12 (centres unmarked) [Compound 3, 1-(4-Nitrophenyl)-3-azabicyclo[3.1.0]hexane-2,4-dione] | > 100
Nc1ccc(C23CC2C(=O)NC3=O)cc1 (centres unmarked) [Compound 4, 1-(4-Aminophenyl)-3-azabicyclo[3.1.0]hexane-2,4-dione] | > 30
CN(C)CC(=O)Nc1ccc(C23CC2C(=O)NC3=O)cc1 (centres unmarked) [Compound 5, 2-(dimethylamino)-N-(4-(2,4-dioxo-3-azabicyclo[3.1.0]hexan-1-yl)phenyl)acetamide] | > 100
CC(=O)Nc1ccc(C23CC2C(=O)NC3=O)cc1 (centres unmarked) [Compound 6, N-(4-(2,4-dioxo-3-azabicyclo[3.1.0]hexan-1-yl)phenyl)acetamide] | > 100
CS(=O)(=O)Nc1ccc(C23CC2C(=O)NC3=O)cc1 (centres unmarked) [Compound 7, N-(4-(2,4-dioxo-3-azabicyclo[3.1.0]hexan-1-yl)phenyl)methanesulfonamide] | > 100
CC1(c2ccccc2)CCC(=O)NC1=O (centres unmarked) [Compound 8, 3-Methyl-3-phenylpiperidine-2,6-dione] | > 30
CC1(c2ccc(N)cc2)CCC(=O)NC1=O (centres unmarked) [Compound 10, 3-(4-Aminophenyl)-3-methylpiperidine-2,6-dione] | > 30
CC1(c2ccccc2N)CCC(=O)NC1=O (centres unmarked) [Compound 11, 3-(2-aminophenyl)-3-methylpiperidine-2,6-dione] | > 30
Cn1c(CC2CCC(=O)NC2=O)nc2ccccc21 (centres unmarked) [Compound 12] | 50 to 100
Cn1nc(CC2CCC(=O)NC2=O)c2ccccc21 (centres unmarked) [Compound 13, 3-((1-methyl-1H-indazol-3-yl)methyl)piperidine-2,6-dione] | > 100
O=C1CCC(C(=O)Nc2ccccc2)C(=O)N1 (centres unmarked) [Compound 14] | 50 to 100
COc1ccccc1NC(=O)C1CCC(=O)NC1=O (centres unmarked) [Compound 15] | 10 to 50
O=C1CCC(C(=O)Nc2cccnc2)C(=O)N1 (centres unmarked) [Compound 16] | > 100
O=C1CCC(C(=O)Nc2ccccn2)C(=O)N1 (centres unmarked) [Compound 17] | > 100
O=C1CCC(C(=O)Nc2ccccc2F)C(=O)N1 (centres unmarked) [Compound 18] | > 100
COc1ccccc1N(C)C(=O)C1CCC(=O)NC1=O (centres unmarked) [Compound 19] | > 100
CN(C(=O)C1CCC(=O)NC1=O)c1ccccn1 (centres unmarked) [Compound 20] | > 100
CN(C(=O)C1CCC(=O)NC1=O)c1ccccc1F (centres unmarked) [Compound 21] | 50 to 100

Compound | Kd [µM]
CN(C(=O)C1CCC(=O)NC1=O)c1ccccc1 (centres unmarked) [Compound 22] | > 100
O=C1CCC(CC(=O)Nc2ccccc2F)C(=O)N1 (centres unmarked) [Compound 23, 2-(2,6-Dioxo-piperidin-3-yl)-N-(2-fluoro-phenyl)-acetamide] | 50 to 100
O=C1CCC(Cc2cn(-c3ccccc3)nn2)C(=O)N1 (centres unmarked) [Compound 24, 3-(1-Phenyl-1H-[1,2,3]triazol-4-ylmethyl)-piperidine-2,6-dione] | 10 to 50
Cn1cc(CC2CCC(=O)NC2=O)nn1 (centres unmarked) [Compound 25, 3-(1-Methyl-1H-[1,2,3]triazol-4-ylmethyl)-piperidine-2,6-dione] | 50 to 100
Cn1cc(C2CCC(=O)NC2=O)nn1 (centres unmarked) [Compound 26, 3-(1-Methyl-1H-[1,2,3]triazol-4-yl)-piperidine-2,6-dione] | 50 to 100
O=C1CCC(c2cn(-c3ccccc3)nn2)C(=O)N1 (centres unmarked) [Compound 27, 3-(1-Phenyl-1H-[1,2,3]triazol-4-yl)-piperidine-2,6-dione] | 10 to 50
O=C1CCC(c2ncc3ccccn23)C(=O)N1 (centres unmarked) [Compound 28, 3-Imidazo[1,5-a]pyridin-3-yl-piperidine-2,6-dione] | < 10
Cn1cc(C2CCC(=O)NC2=O)c2ccccc21 (centres unmarked) [Compound 29, 3-(1-Methyl-1H-indol-3-yl)-piperidine-2,6-dione] | < 10
Cn1nc(C2CCC(=O)NC2=O)cc1-c1ccccc1 (centres unmarked) [Compound 30, 3-(1-methyl-5-phenyl-1H-pyrazol-3-yl)-piperidine-2,6-dione] | < 10
Cn1nc(-c2ccccc2)cc1C1CCC(=O)NC1=O (centres unmarked) [Compound 31, 3-(1-methyl-3-phenyl-1H-pyrazol-5-yl)piperidine-2,6-dione] | 50 to 100
Cc1ccccc1C1CCC(=O)NC1=O (centres unmarked) [Compound 32, 3-(o-tolyl)piperidine-2,6-dione] | 10 to 50
Cn1ccc(C2CCC(=O)NC2=O)n1 (centres unmarked) [Compound 33, 3-(1-methyl-1H-pyrazol-3-yl)piperidine-2,6-dione] | 10 to 50
COc1cccc(C2CCC(=O)NC2=O)n1 (centres unmarked) [Compound 34, 3-(6-methoxypyridin-2-yl)piperidine-2,6-dione] | 10 to 50
Cn1ccc2ccc(C3CCC(=O)NC3=O)nc21 (centres unmarked) [Compound 35, 3-(1-Methyl-1H-pyrrolo[2,3-b]pyridin-6-yl)-piperidine-2,6-dione] | 10 to 50
Cn1cnc2c(C3CCC(=O)NC3=O)cccc21 (centres unmarked) [Compound 36, 3-(1-methyl-1H-benzo[d]imidazol-4-yl)piperidine-2,6-dione] | 10 to 50
Cn1nc(C2CCC(=O)NC2=O)c2ccccc21 (centres unmarked) [Compound 37, 3-(1-Methyl-1H-indazol-3-yl)-piperidine-2,6-dione] | < 10
Cn1nc([C@@H]2CCC(=O)NC2=O)c2ccccc21 [Compound 38] | < 10
Cn1nc([C@H]2CCC(=O)NC2=O)c2ccccc21 [Compound 39] | 10 to 50
Cn1c(=O)c(C2CCC(=O)NC2=O)cc2ccccc21 (centres unmarked) [Compound 40, 3-(1-Methyl-2-oxo-1,2-dihydro-quinolin-3-yl)-piperidine-2,6-dione] | < 10
CN1Cc2ccc(C3CCC(=O)NC3=O)cc2C1=O (centres unmarked) [Compound 41, 3-(2-Methyl-3-oxo-2,3-dihydro-1H-isoindol-5-yl)-piperidine-2,6-dione] | 10 to 50

Compound | Kd [µM]
CC(C)(C)OC(=O)N1Cc2cccc(C3CCC(=O)NC3=O)c2C1 (centres unmarked) [Compound 42, 4-(2,6-dioxo-piperidin-3-yl)-1,3-dihydro-isoindole-2-carboxylic acid tert-butyl ester] | 10 to 50
CC(C)(C)OC(=O)N1CCN(C(=O)CC2CCC(=O)NC2=O)CC1 (centres unmarked) [Compound 44, 4-[2-(2,6-Dioxo-piperidin-3-yl)-acetyl]-piperazine-1-carboxylic acid tert-butyl ester] | 50 to 100
O=C1CCC(CC(=O)N2CCNCC2)C(=O)N1 (centres unmarked) [Compound 45, 3-(2-Oxo-2-piperazin-1-yl-ethyl)-piperidine-2,6-dione hydrochloride Salt] | 50 to 100
Cc1nc(C2CCC(=O)NC2=O)cn1-c1ccccc1 (centres unmarked) [Compound 46, 3-(2-Methyl-1-phenyl-1H-imidazol-4-yl)-piperidine-2,6-dione] | 10 to 50
Cn1nc(C2(C)CCC(=O)NC2=O)c2ccccc21 (centres unmarked) [Compound 47, 3-Methyl-3-(1-methyl-1H-indazol-3-yl)-piperidine-2,6-dione] | 10 to 50
Cc1nc2cc(C3CCC(=O)NC3=O)ccc2s1 (centres unmarked) [Compound 48, 3-(2-Methyl-benzothiazol-5-yl)-piperidine-2,6-dione] | < 10
Cn1c(=O)oc2ccc(C3CCC(=O)NC3=O)cc21 (centres unmarked) [Compound 49, 3-(3-Methyl-2-oxo-2,3-dihydro-benzooxazol-5-yl)-piperidine-2,6-dione] | 10 to 50
O=C1CCC(Cc2ccccc2)C(=O)N1 (centres unmarked) [Compound 50, 3-benzylpiperidine-2,6-dione] | 10 to 50
Cn1nc(C2CCC(=O)NC2=O)c2ccc(N)cc21 (centres unmarked) [Compound 51, 3-(6-amino-1-methyl-indazol-3-yl)piperidine-2,6-dione] | 50 to 100
Cn1nc(C2CCC(=O)NC2=O)c2ccc(NC3CCN(C(=O)OC(C)(C)C)CC3)cc21 (centres unmarked) [Compound 52, tert-Butyl 4-((3-(2,6-dioxopiperidin-3-yl)-1-methyl-1H-indazol-6-yl)amino)piperidine-1-carboxylate] | < 10
Cn1nc(C2CCC(=O)NC2=O)c2ccc(NC3CCNCC3)cc21 (centres unmarked) [Compound 53, 3-(1-Methyl-6-(piperidin-4-ylamino)-1H-indazol-3-yl)piperidine-2,6-dione hydrochloride] | < 10
CC(C)(C)OC(=O)N1Cc2ccc(C3CCC(=O)NC3=O)cc2C1 (centres unmarked) [Compound 54, 5-(2,6-Dioxo-piperidin-3-yl)-1,3-dihydro-isoindole-2-carboxylic acid tert-butyl ester] | 10 to 50
O=C1CCC(c2ccc3c(c2)CNC3)C(=O)N1 (centres unmarked) [Compound 55, 3-(Isoindolin-5-yl)piperidine-2,6-dione hydrochloride] | 50 to 100
O=C1CCC(c2nccc3ccccc23)C(=O)N1 (centres unmarked) [Compound 58, 3-(Isoquinolin-1-yl)piperidine-2,6-dione] | 10 to 50
Cn1cccc(C2CCC(=O)NC2=O)c1=O (centres unmarked) [Compound 59, 3-(1-methyl-2-oxo-1,2-dihydropyridin-3-yl)piperidine-2,6-dione] | 50 to 100
O=C1CCC(O)(C(=O)OCc2ccccc2)C(=O)N1 (centres unmarked) [Compound 60, benzyl 3-hydroxy-2,6-dioxopiperidine-3-carboxylate] | 10 to 50
Cc1nc(C2CCC(=O)NC2=O)n2ccccc12 (centres unmarked) [Compound 61, 3-(1-methylimidazo[1,5-a]pyridin-3-yl)piperidine-2,6-dione] | < 10
Cn1c(C2CCC(=O)NC2=O)nc2ccccc21 (centres unmarked) [Compound 62, 3-(1-methyl-1H-benzo[d]imidazol-2-yl)piperidine-2,6-dione] | 50 to 100
O=C1CCC(c2cn(-c3ccccc3)cn2)C(=O)N1 (centres unmarked) [Compound 64, 3-(1-phenyl-1H-imidazol-4-yl)piperidine-2,6-dione] | 10 to 50
